The subject of the assay is wild-type red mold strain GZ3639. In words: Inhibition of spore germination / reactive oxygen species generation through NOX enzyme inhibition in red mold. It counts as cell-based. The following applies: 24 h, read-out: IC50 (µM), compound concentration at which the spore germination inhibition rate was 50%. As to the method:
When NADPH oxidase (NOX), which is involved in the generation of reactive oxygen species in red mold, is inhibited, normal mycelial growth is inhibited, abnormal form of monocyclic conidia is formed, and germination is inhibited. The abnormal phenotype caused by the reduction of reactive oxygen species in red mold can be easily observed under an optical microscope. Through this, the ability to inhibit generation of reactive oxygen species through NOX inhibition was evaluated.
Specifically, for the evaluation of compound activity, 0.1 mM of the compound was added to a minimum medium (MM20) spore suspension diluted to ⅕. Spores ([…]) of wild-type red mold strain GZ3639 were inoculated into the medium and cultured at 25° C. for 24 h, followed by microscopic observation. Compounds having a germination inhibition rate and microcycle conidiation to be 50% or more of those in normal germination were selected, and their activities were evaluated at concentrations of 50 µM, 25 µM, and 10 µM. At this time, the activity of substances having a germination inhibition rate of 95% at 10 µM was further evaluated at concentrations of 5 µM, 1 µM, 0.5 µM, and 0.1 µM. Based on the result of this evaluation, the compound concentration (inhibitory concentration 50%, IC50) at which the spore germination inhibition rate was 50% was determined.

For `CN1C(=[Se])N(c2ccccc2)C(=O)/C1=C\c1ccc(N(C)C)cc1` [Compound 3, 5-(4-(dimethylamino)benzylidene)-1-methyl-3-phenyl-2-selenoxoimidazolidine-4-on], the IC50 was 26 µM.
Then `CN1C(=[Se])N(c2ccccc2)C(=O)/C1=C\c1ccc(N2CCCC2)cc1` [Compound 7, 1-methyl-3-phenyl-5-(4-pyrrolidine-1-yl)benzylidene-2-selenoxoimidazolidine-4-on], with 16 µM; and `CN1C(=[Se])N(c2ccccc2)C(=O)/C1=C\c1cccc(O)c1` [Compound 8, 5-(3-hydroxybenzylidene)-1-methyl-3-phenyl-2-selenoxoimidazolidine-4-on], with 41 µM; and `CN1C(=[Se])N(c2ccccc2)C(=O)/C1=C\c1cccnc1` [Compound 9, 1-methyl-3-phenyl-5-(pyridine-3-ylmethylene)-2-selenoxoimidazolidine-4-on], with 37 µM.
The figure for `Cc1ccc(N2C(=O)/C(=C\c3cccc(O)c3O)N(C)C2=[Se])cc1` [Compound 11, 5-(2,3-dihydroxybenzylidene)-1-methyl-3-(4-tolyl)-2-selenoxoimidazolidine-4-on] is 46 µM; for `Cc1ccc(N2C(=O)/C(=C\c3ccc(Br)cc3)N(C)C2=[Se])cc1` [Compound 16, 5-(4-bromobenzylidene)-1-methyl-2-selenoxo-3-(4-tolyl)imidazolidine-4-on] it is 46 µM; for `Cc1ccc(N2C(=O)/C(=C\c3ccc(N4CCCC4)cc3)N(C)C2=[Se])cc1` [Compound 17, 1-methyl-5-(4-pyrrolidine-1-yl)benzylidene-2-selenoxo-3-(4-tolyl)imidazolidine-4-on] it is 11 µM.
Then `Cc1ccc(N2C(=O)/C(=C\c3ccc(O)cc3)N(C)C2=[Se])cc1` [Compound 18, 5-(4-hydroxybenzylidene)-1-methyl-2-selenoxo-3-(4-tolyl)imidazolidine-4-on], with 13 µM.
Consider `Cc1ccc(N2C(=O)/C(=C\c3cccnc3)N(C)C2=[Se])cc1` [Compound 19, 1-methyl-5-(pyridine-3-ylmethylene)-2-selenoxo-3-(4-tolyl)imidazolidine-4-on], for which the IC50 worked out at 41 µM.
As to `Cc1ccc(N2C(=O)/C(=C\c3ccc(NCCN4CCOCC4)cc3)N(C)C2=[Se])cc1` [Compound 23, 1-methyl-5-(4-((2-morpholinoethyl)amino)benzylidene)-2-selenoxo-3-(4-tolyl)imidazolidine-4-on], the IC50 worked out at 5.2 µM.
The figure for `CCc1ccc(N2C(=O)/C(=C\c3ccc(O)cc3O)N(C)C2=[Se])cc1` [Compound 24, 5-(2,4-dihydroxybenzylidene)-3-(4-ethylphenyl)-1-methyl-2-selenoxoimidazolidine-4-on] is 14 µM; for `CCc1ccc(N2C(=O)/C(=C\c3ccc(N4CCCCC4)cc3)N(C)C2=[Se])cc1` [Compound 28, 3-(4-ethylphenyl)-1-methyl-5-(4-(piperidine-1-yl)benzylidene)-2-selenoxoimidazolidine-4-on] it is 11 µM.
The figure for `CCc1ccc(N2C(=O)/C(=C\c3ccc(Br)cc3)N(C)C2=[Se])cc1` [Compound 29, 5-(4-bromobenzylidene)-3-(4-ethylphenyl)-1-methyl-2-selenoxoimidazolidine-4-on] is 11 µM; for `CCc1ccc(N2C(=O)/C(=C\c3cccnc3)N(C)C2=[Se])cc1` [Compound 31, 3-(4-ethylphenyl)-1-methyl-5-(pyridine-3-ylmethylene)-2-selenoxoimidazolidine-4-on] it is 30 µM; for `CN1C(=[Se])N(c2ccc(Cl)cc2)C(=O)/C1=C\c1ccc(O)cc1O` [Compound 35, 3-(4-chlorophenyl)-5-(2,4-dihydroxybenzylidene)-1-methyl-2-selenoxoimidazolidine-4-on] it is 31 µM.
With `CN1C(=[Se])N(c2ccc(Cl)cc2)C(=O)/C1=C\c1cccc(O)c1O` [Compound 36, 3-(4-chlorophenyl)-5-(2,3-dihydroxybenzylidene)-1-methyl-2-selenoxoimidazolidine-4-on], the IC50 was found to be 46 µM.
The figure for `CN1C(=[Se])N(c2ccc(Cl)cc2)C(=O)/C1=C\c1ccc(O)c(O)c1` [Compound 37, 3-(4-chlorophenyl)-5-(3,4-dihydroxybenzylidene)-1-methyl-2-selenoxoimidazolidine-4-on] is 20 µM; for `CN1C(=[Se])N(c2ccc(Cl)cc2)C(=O)/C1=C\c1cc(O)cc(O)c1` [Compound 38, 3-(4-chlorophenyl)-5-(3,5-dihydroxybenzylidene)-1-methyl-2-selenoxoimidazolidine-4-on] it is 56 µM; for `CN1C(=[Se])N(c2ccc(Cl)cc2)C(=O)/C1=C\c1cccnc1` [Compound 39, 3-(4-chlorophenyl)-1-methyl-5-(pyridine-3-ylmethylene)-2-selenoxoimidazolidine-4-on] it is 27 µM.
Then `CN1C(=[Se])N(c2cccc(Cl)c2)C(=O)/C1=C\c1cccc(O)c1O` [Compound 40, 3-(3-chlorophenyl)-5-(2,3-dihydroxybenzylidene)-1-methyl-2-selenoxoimidazolidine-4-on], with 42 µM.
For `CN1C(=[Se])N(CCc2ccccc2)C(=O)/C1=C\c1ccc(O)cc1O` [Compound 41, 5-(2,4-dihydroxybenzylidene)-1-methyl-3-phenethyl-2-selenoxoimidazolidine-4-on], the IC50 is 9.8 µM.
`CN1C(=[Se])N(CCc2ccccc2)C(=O)/C1=C\c1ccc(N(C)C)cc1` [Compound 43, 5-(4-(dimethylamino)benzylidene)-1-methyl-3-phenethyl-2-selenoxoimidazolidine-4-on]: the IC50 turned out to be 23 µM.
`CN1C(=[Se])N(CCc2ccccc2)C(=O)/C1=C\c1ccc(N2CCOCC2)cc1` [Compound 52, 1-methyl-5-(4-morpholinobenzylidene)-3-phenethyl-2-selenoxoimidazolidine-4-on]: the IC50 was 3.5 µM.
For the compound `CN1C(=[Se])N(C2CCCCC2)C(=O)/C1=C\c1ccc(O)cc1O` [Compound 55, 3-cyclohexyl-5-(2,4-dihydroxybenzylidene)-1-methyl-2-selenoxoimidazolidine-4-on], the IC50 amounted to 1 µM.
Then `CN1C(=[Se])N(C2CCCCC2)C(=O)/C1=C\c1cccc(O)c1O` [Compound 56, 3-cyclohexyl-5-(2,3-dihydroxybenzylidene)-1-methyl-2-selenoxoimidazolidine-4-on], with 18 µM; and `CN1C(=[Se])N(C2CCCCC2)C(=O)/C1=C\c1ccc(N(C)C)cc1` [Compound 57], with 46 µM.
Consider `CN1C(=[Se])N(C2CCCCC2)C(=O)/C1=C\c1cc(O)cc(O)c1` [Compound 58, 3-cyclohexyl-5-(3,5-dihydroxybenzylidene)-1-methyl-2-selenoxoimidazolidine-4-on], for which the IC50 was 18 µM.
With `CCCCCCN1C(=O)/C(=C\c2cccc(O)c2O)N(C)C1=[Se]` [Compound 60, 5-(2,3-dihydroxybenzylidene)-3-hexyl-1-methyl-2-selenoxoimidazolidine-4-on], the IC50 amounted to 6 µM.
The figure for `CCCCCCN1C(=O)/C(=C\c2ccc(N(C)C)cc2)N(C)C1=[Se]` [Compound 61, 5-(4-(dimethylamino)benzylidene)-3-hexyl-1-methyl-2-selenoxoimidazolidine-4-on] is 33 µM; for `CCCCCCN1C(=O)/C(=C\c2cc(O)cc(O)c2)N(C)C1=[Se]` [Compound 62, 5-(3,5-dihydroxybenzylidene)-3-hexyl-1-methyl-2-selenoxoimidazolidine-4-on] it is 5 µM.
Then `CCCCCCN1C(=O)/C(=C\c2ccc(N3CCOCC3)cc2)N(C)C1=[Se]` [Compound 63, 3-hexyl-1-methyl-5-(4-morpholinobenzylidene)-2-selenoxoimidazolidine-4-on], with 0.5 µM.
Then `CCCCCCN1C(=O)/C(=C\c2ccc(NCCOCCF)cc2)N(C)C1=[Se]` [Compound 67, 5-(4-((2-(2-fluoroethoxy)ethyl)amino)benzylidene)-3-hexyl-1-methyl-2-selenoxoimidazolidine-4-on], with 0.45 µM; and `CN1C(=[Se])N(C2CCCC2)C(=O)/C1=C\c1ccc(O)cc1O` [Compound 68, 3-cyclopentyl-5-(2,4-dihydroxybenzylidene)-1-methyl-2-selenoxoimidazolidine-4-on], with 3 µM.
`CN1C(=[Se])N(C2CCCC2)C(=O)/C1=C\c1cccc(O)c1O` [Compound 69, 3-cyclopentyl-5-(2,3-dihydroxybenzylidene)-1-methyl-2-selenoxoimidazolidine-4-on]: the IC50 came to 14 µM.
For the compound `CN1C(=[Se])N(C2CCCC2)C(=O)/C1=C\c1ccc(N(C)C)cc1` [Compound 70, 3-cyclopentyl-5-(4-(dimethylamino)benzylidene)-1-methyl-2-selenoxoimidazolidine-4-on], the IC50 was determined as 26 µM.
Then `CN1C(=[Se])N(C2CCCC2)C(=O)/C1=C\c1ccc(O)c(O)c1` [Compound 71, 3-cyclopentyl-5-(3,4-dihydroxybenzylidene)-1-methyl-2-selenoxoimidazolidine-4-on], with 26 µM; and `CN1C(=[Se])N(c2ccc(F)cc2)C(=O)/C1=C\c1ccc(N(C)C)cc1` [Compound 75, 5-(4-(dimethylamino)benzylidene)-3-(4-fluorophenyl)-1-methyl-2-selenoxoimidazolidine-4-on], with 23 µM.

The values above are taken from US20230286956A1 (DUKSUNG WOMEN'S UNIVERSITY INDUSTRY-ACADEMIC COOPERATION …, priority 2020, published 2023).
